In patent publication US20240294876A1, “METHODS FOR THE EXPANSION OF HUMAN GRANULOCYTE-MACROPHAGE PROGENITORS AND APPLICATIONS THEREOF” (University of Southern California, priority 2021, published 2024):

B1: M-CSF: macrophage differentiation factor (protein, UniProt P09603 33-554, looked up)
Macrophage colony-stimulating …: EEVSEYCSHMIGSGHLQSLQRLIDSQMETSCQITFEFVDQEQLKDPVCYLKKAFLLVQDIMEDTMRFRDNTPNAIAIVQLQELSLRLKSCFTKDYEEHDKACVRTFYETPLQLLEKVKNVFNETKNLLDKDWNIFSKNCNNSFAECSSQDVVTKPDCNCLYPKAIPSSDPASVSPHQPLAPSMAPVAGLTWEDSEGTEGSSLLPGEQPLHTVDPGSAKQRPPRSTCQSFEPPETPVVKDSTIGGSPQPRPSVGAFNPGMEDILDSAMGTNWVPEEASGEASEIPVPQGTELSPSRPGGGSMQTEPARPSNFLSASSPLPASAKGQQPADVTGTALPRVGPVRPTGQDWNHTPQKTDHPSALLRDPPEPGSPRISSLRPQGLSNPSTLSAQPQLSRSHSSGSVLPLGELEGRRSTRDRRSPAEPEGGPASEGAARPLPRFNSVPLTDTGHERQSEGSFSPQLQESVFHLLVPSVILVLLAVGGLLFYRWRRRSHQEPQRADSPLEQPEGSPLTQDDRQVELPV
B2: G-CSF: granulocyte colony stimulating factor (protein, UniProt P09919 31-207, looked up)
Granulocyte …: TPLGPASSLPQSFLLKCLEQVRKIQGDGAALQEKLVSECATYKLCHPEELVLLGHSLGIPWAPLSSCPSQALQLAGCLSQLHSGLFLYQGLLQALEGISPELGPTLDTLQLDVADFATTIWQQMEELGMAPALQPTQGAMPAFASAFQRRAGGVLVASHLQSFLEVSYRVLRHLAQP

Key:
mouse GMPs = experiment: Ex vivo expansion of mouse bone marrow-derived cells / mouse GMPs; assay type: cell-based; conditions: for ability to mimic the effect of SKL2001 for the expansion of mouse GMPs: in place of SKL2001; for effect on expansion of mouse GMPs in SCF/2i: Wnt/β-catenin signaling inhibitor added to SCF/2i
Description: (§1) (A) Schematic of the experimental design to identify growth factors and small molecules that can promote expansion of mouse bone marrow-derived stem cells. (B) Representative phase-contrast images of mouse bone marrow cells cultured in N2B27 supplemented with the indicated small molecule inhibitors for 7 days. (C) Representative phase-contrast images of mouse bone marrow cells cultured in N2B27 supplemented with SCF plus GDC0879 or SB590885 for 3 passages. (D) Cell growth curves. Bone marrow cells isolated from C57BL/6J mice were plated into 24-well plates at a density of 2×10^5 cells/well and cultured in B7 medium supplemented with the indicated small molecules/growth factor. Cells were counted and passaged every 3 days. Data are represented as mean±SD from three independent experiments. (E) Bone marrow cells isolated from C57BL/6J mice were cultured in B7 medium supplemented with SCF/2i. Cells were passaged every 3 days. Representative phase-contrast pictures showing SCF/2i cells at different passages. (F) Cytogenetic analysis of SCF/2i cells using the GWT banding method. Bone marrow cells isolated from a female C57BL/6J mouse were expanded in SCF/2i for 8 passages before used for cytogenetic analysis. […] (G) Sequential images of individual bone marrow cells during expansion in B7 medium supplemented with SCF/2i. SCF/2i-expanded bone marrow cells were plated into 96-well plates at a density of 50 cells/well and cultured in SCF/2i. Sequential images were taken using the Keyence BZ-X710 microscopy every 24 hours. 15.7±4.0 colonies formed per well on day 4 (n=3×96). Data are represented as mean±SD from three independent experiments.
Mouse GMP derivation, expansion, and differentiation. Cells were cultured at 37° C. in a 5% CO2 water jacket incubator (Thermo Scientific). Bone marrow cells isolated from C57BL/6J, mTmG or CAG-Cas9-EGFP mice were plated into 6-well plates at a density of 2×10^6 cells/well and cultured in 2 mL B7 medium supplemented with 50 ng/mL SCF, 1 μM GDC-0879, and 10 μM SKL2001 (SCF/2i). After 3-4 days, cells were dissociated into single-cell suspension by pipetting up and down and replated into 6-well plates at a density of 2×10^6 cells/well and cultured in 2 mL B7 medium supplemented with SCF/2i. After 2 passages in SCF/2i, the majority of cells were GMPs. GMPs were routinely passaged every 3 days. To induce differentiation, GMPs were plated into 10 cm tissue culture dishes and cultured in RPMI-1640 medium containing 10% FBS and supplemented with either 20 ng/mL M-CSF (for macrophage differentiation) or 20 ng/mL G-CSF (for granulocyte differentiation). GMP-derived macrophages were harvested on day 7 (medium was changed once on day 4) and GMP-derived granulocytes were harvested on day 3 and used for the further experiments.
Development of defined conditions for the long-term ex vivo expansion of hematopoietic stem/progenitor cells. To develop conditions for the long-term expansion of stem or progenitor cells of the hematopoietic system, screening was conducted to identify small molecules and growth factors/cytokines that can promote their ex vivo expansion (see FIG. 3A). Specifically, bone marrow cells isolated from adult C57BL/6 mice were plated into 96-well plates in serum-free N2B27 medium. Then a first-round small molecule screening was performed. It was reasoned that if a small molecule can block differentiation or promote expansion of stem cells, these stem cells should form colonies with a uniform cell morphology. […] Upon passaging, however, no new colonies were formed in culture with any of the 5 small molecule inhibitors. A second-round screening was conducted to identify growth factors/cytokines that could further improve the expansion of the colonies.
More importantly, these cells could be expanded robustly at clonal density (see FIG. 3G).
SCF/2i-expanded cells are GMPs. […]

[1] = system: bone marrow cells isolated from adult C57BL/6 mice; experiment: Small molecule screen for colony formation of mouse bone marrow cells in serum-free N2B27; assay type: cell-based; conditions: 96-well plates, serum-free N2B27, single small molecule, 7 days in culture
Description: as §1
Based on this finding, it was postulated that many, if not all, types of stem cells can be maintained during long-term in vitro culture by inhibiting signaling pathways responsible for initiating differentiation. […]

myeloperoxidase (MPO) = molecular target: T1, myeloperoxidase (MPO) (Mus musculus, UniProt P11247); experiment: Myeloperoxidase (MPO) activity assay in SCF/2i GMP-derived granulocytes and blood neutrophils; assay type: cell-based; conditions: 100 nM for 2 hours
T1 construct: The supernatants were harvested and MPO activities were measured using the neutrophil MPO activity assay kit; endogenous in cells; host or cells: mouse SCF/2i GMPs, SCF/2i GMP-derived granulocytes and mouse blood neutrophils; MPO measured in culture supernatant after PMA stimulation
T1 sequence (P11247 139-718): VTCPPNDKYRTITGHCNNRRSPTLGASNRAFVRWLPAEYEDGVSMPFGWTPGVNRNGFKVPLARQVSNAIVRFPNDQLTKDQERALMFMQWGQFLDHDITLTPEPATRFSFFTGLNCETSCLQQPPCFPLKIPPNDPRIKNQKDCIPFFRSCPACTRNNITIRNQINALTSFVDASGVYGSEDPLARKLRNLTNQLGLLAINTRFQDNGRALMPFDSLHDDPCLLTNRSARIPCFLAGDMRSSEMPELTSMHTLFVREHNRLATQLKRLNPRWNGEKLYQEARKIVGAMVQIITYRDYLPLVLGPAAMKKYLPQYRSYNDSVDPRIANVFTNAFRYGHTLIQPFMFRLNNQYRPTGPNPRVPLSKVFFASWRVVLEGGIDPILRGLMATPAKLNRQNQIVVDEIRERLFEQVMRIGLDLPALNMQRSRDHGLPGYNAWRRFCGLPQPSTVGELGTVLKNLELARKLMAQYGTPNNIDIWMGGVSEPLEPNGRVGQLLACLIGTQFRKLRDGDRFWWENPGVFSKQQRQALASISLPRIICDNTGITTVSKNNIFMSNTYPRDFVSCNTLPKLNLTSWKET
Description: (F) ELISA analysis of cytokine secretion and MPO activity measurement in the indicated cells stimulated with 500 ng/ml LPS for 6 hours (for ELISA assay) or 100 nM PMA for 2 hours (for MPO assay). Data are represented as mean±SD from three independent experiments. Ctrl, no treatment control; ns, not significant.
Myeloperoxidase (MPO) assay. SCF/2i GMPs, blood neutrophils and SCF/2i GMP-derived granulocytes were plated into 96-well plates at a density of 2×10^4 cells/well and cultured in 100 μl RPMI 1640 medium supplemented with 10% FBS. […] The supernatants were harvested and MPO activities were measured using the neutrophil MPO activity assay kit (Cayman, 600620) according to the manufacturer's instructions.

SCF/2i GMPs = experiment: In vitro differentiation of SCF/2i GMPs, flow cytometry; assay type: cell-based, mouse
Description: (A) Immunofluorescence and flow cytometry analysis of CD11b and F4/80 expression in cells differentiated from SCF/2i GMPs after treatment with M-CSF for 7 days. Flow cytometry data are represented as mean±SD from three independent experiments. (B) ELISA analysis of cytokine secretion in bone marrow (BM) and SCF/2i GMP-derived macrophages stimulated with 500 ng/ml LPS for 6 hours. Data are represented as mean±SD from three independent experiments. (C) Phagocytosis analysis of SCF/2i GMP-derived macrophages by incubating with FITC-labeled latex beads for 1 hour. Upper panel, a representative fluorescent image (green, FITC-labeled beads; blue, macrophage cell nuclei). Lower panel, flow cytometry analysis of SCF/2i GMP-derived macrophages incubated with (red) or without (blue) FITC-labeled latex beads. Flow cytometry data are represented as mean±SD from three independent experiments. (D) Time-lapse images of tdTomato-positive SCF/2i GMP-derived macrophages incubated with GFP labeled E. coli. The numbers on the images indicate the times in minutes. Arrows and arrowheads indicate the bacteria engulfed by macrophages. (E) Giemsa staining (upper panel) and flow cytometry analysis (lower panel) of SCF/2i GMPs treated with PBS or G-CSF for 3 days. Flow cytometry data are represented as mean±SD (n=5). […] A total of 192×3 wells from three independent experiments were counted for each group. […]

Molecule	ability to mimic the effect of SKL2001 for the expansion of mouse GMPs (mouse GMPs)	formation of colonies with uniform cell morphology [1]	further results
Cc1c[nH]c(-c2cnc(NCCNc3ccc(C#N)cn3)nc2-c2ccc(Cl)cc2Cl)n1 [CHIR99021]	could not mimic the effect of SKL2001	–	–
Cc1cc([N+](=O)[O-])ccc1NS(=O)(=O)c1cc(Cl)ccc1Cl [FH535]	–	–	effect on expansion of mouse GMPs in SCF/2i (mouse GMPs): not affected
O=C(Nc1cccc2cccnc12)c1ccc(N2C(=O)[C@@H]3[C@H](C2=O)[C@@H]2C=C[C@H]3C2)cc1 [IWR1]	–	clusters of colonies were observed being formed	effect on expansion of mouse GMPs in SCF/2i (mouse GMPs): not affected
COc1cccc(-c2cc(NCc3ccc4c(c3)OCO4)nc(N)n2)c1 [Wnt agonist 1]	could not mimic the effect of SKL2001	–	–
CCCCCCCCCCCCCC(=O)O[C@@H]1[C@@H](C)[C@@]2(O)[C@@H](C=C(CO)C[C@]3(O)C(=O)C(C)=C[C@@H]23)[C@@H]2C(C)(C)[C@]12OC(C)=O [PMA, phorbol myristate acetate]	–	–	MPO activity upon activation (myeloperoxidase (MPO)): significantly increased
C[S+]([O-])c1ccc(-c2nc(-c3ccncc3)c(-c3ccc(F)cc3)[nH]2)cc1 (centres unmarked) [SB203580]	–	clusters of colonies were observed being formed	–
Cc1cccc(-c2nn(C(=S)Nc3ccccc3)cc2-c2ccnc3ccccc23)n1 [A-8301]	–	clusters of colonies were observed being formed	–
Wnt3a	could not mimic the effect of SKL2001	–	–
B1	–	–	cells positive for both F4/80 and CD11b (SCF/2i GMPs; SCF/2i GMPs treated for 7 days): more than 99%
B2	–	–	cells Ly6G+CD115− (SCF/2i GMPs; SCF/2i GMPs treated for 3 days): more than 80%
